Each structure is given as a SMILES string. Where a name gives a salt, the structure may show the parent alone.

Series [1] has as its system human rhinovirus-14. The series is described as follows: Neutral red assay of CPE inhibition, human rhinovirus-14. The class given is cell-based. The note with it: HeLa Ohio cells, compounds tested at 0.3, 3, 30 and 300 microM, unit inferred. As for the experimental part:
(§1) The efficacy of celgosivir and castanospermine against RSV and human rhinovirus-14 was assessed in vitro. For RSV studies, embryonic African green monkey kidney cells (MA-104) were grown in minimal essential medium (MEM) supplemented with 0.1% NaHCO3 and 10% fetal bovine serum. When performing antiviral assays, serum was reduced to 2% and […] gentamicin was added to the medium. RSV strain A2 was used for the studies. For rhinovirus studies, the HeLa Ohio cell line was used in place of MA-104 cells.
(§2) CPE inhibition assays with visual quantification of antiviral activity and cytotoxicity were performed as described by Sidwell and Huffman (1971) with slight modifications. Sidwell, R. W. and Huffman, J. H. (1971) Use of disposable micro-tissue culture plates for antiviral and interferon induction studies. Appl. Microbiol. 22, […]. […] All compounds were assayed for virus inhibition in quadruplicate and for cytotoxicity in duplicate. For rhinovirus studies, Pirodavir was applied at a concentration of 0.001-1 μg/ml as the positive control compound. For RSV studies, the positive control compound was Ribavirin applied at a concentration of 0.5-500 μg/ml. For each compound, two wells were set aside as uninfected, untreated cell controls per test and four wells per test received virus only and represented controls for virus replication. […] A selective index (S.I.) was calculated for each compound (SI.=(IC50)/(EC50)).
(§3) Neutral red assay of CPE inhibition and cytotoxicity was performed by a modified method as described by Cavenaugh et al. (1990). […] Briefly, medium was removed from each well of a plate scored for CPE from the visual CPE inhibition assay, 0.2 ml of neutral red (0.034% in PSS) was added to each of the wells of that plate and the plate incubated for 2 h at 37° C. in the dark. […] Absorbances at 540 and 450 nm were read with a microplate reader (Bio-Tek EL 1309; Bio-Tek Instruments). […] Absorbance values were expressed as percentages of untreated controls and EC50 and IC50 values were calculated by regression analysis

Series [2] relates to RSV [strain A/A2]. The series is described as follows: Pulmonary histopathology in RSV-infected cotton rats. The format is in vivo, Cotton rats [Sigmodon hispidus]. The note with it: for lung histopathology scores (RSV-induced inflammation): Day 5 post infection, celgosivir 25, 50 or 100 mg/kg BID from one day before or after infection, synagis 2.5 mg/kg i.m. once per day, vs vehicle. As for the experimental part: Cotton rats [Sigmodon hispidus, 2 male & 3 female, 6-8 weeks old] provided with standard rodent chow and water ad lib, were infected intranasally with RSV [strain A/A2, 10^5 pfu] on Day 0. Animals received celgosivir [25, 50 or 100 mg/kg BID for total daily doses of 50, 100 or 200 mg/kg] daily beginning one day before or after infection and were sacrificed on Day 5-post-infection for histopathology, qPCR, and viral load assessment. Control groups included a [i] positive control Synagis [2.5 mg/kg, i.m, once per day from the first day post-infection], [ii] vehicle control in which vehicle was administered twice per day beginning one day prior to RSV infection, [iii] a vehicle control group that were mock-infected with PBS for which treatment was initiated beginning one day prior to infection, and [iv] an untreated group mock infected with PBS that received no treatment. Animals were weighed on Day −1 and Day 5, and plasma was obtained by retro-orbital bleed on the same days.
The RSV strain for inoculation [A/A2 (RSV A/A2) (ATCC, Manassas, VA)] was propagated in HEp-2 cells after serial plaque-purification to reduce defective-interfering particles. A pool of virus designated containing approximately 3.0×10^8 pfu/mL in sucrose stabilizing media was used in the experiment. This stock of virus was stored at −80° C. and was previously characterized in vivo in the cotton rat model and validated for upper and lower respiratory tract replication.
Pulmonary Histopathology: Lungs were removed and inflated with 10% neutral buffered formalin to their normal volume, then fixed [using the same solution]. After fixation, lungs were embedded in paraffin, sectioned, and stained with H&E. Four parameters of pulmonary inflammation were evaluated: peribronchiolitis (inflammatory cell infiltration around the bronchioles), perivasculitis (inflammatory cell infiltration around the small blood vessels), interstitial pneumonia (inflammatory cell infiltration and thickening of alveolar walls), and alveolitis (cells within the alveolar spaces). Slides were blindly scored on a 0-4 severity scale. The scores are subsequently converted to a 0-100% normalized scale.
Statistics: Group means for each parameter were evaluated by one-way ANOVA, then individual group means were compared [t-test, with multiple comparison correction] to the RSV-infected, vehicle-treated control group. P<0.05 was considered statistically significant.

Series [3] can be described thus: Cytotoxicity, neutral red assay, HeLa Ohio cells. The class given is cell-based. The settings on record: human, compounds tested at 0.3, 3, 30 and 300 microM, unit inferred. As for the experimental part: as §1, §2, §3
For series [4] the following is noted: cited from earlier work.
Series [5] relates to human rhinovirus-14. The series is described as follows: CPE inhibition assay, visual examination, human rhinovirus-14. The class given is cell-based. As for the experimental part:
as §1
(§4) CPE inhibition assays with visual quantification of antiviral activity and cytotoxicity were performed as described by Sidwell and Huffman (1971) with slight modifications. Sidwell, R. W. and Huffman, J. H. (1971) Use of disposable micro-tissue culture plates for antiviral and interferon induction studies. Appl. Microbiol. 22, […]. […] All compounds were assayed for virus inhibition in quadruplicate and for cytotoxicity in duplicate. For rhinovirus studies, Pirodavir was applied at a concentration of 0.001-1 μg/ml as the positive control compound. For RSV studies, the positive control compound was Ribavirin applied at a concentration of 0.5-500 μg/ml. For each compound, two wells were set aside as uninfected, untreated cell controls per test and four wells per test received virus only and represented controls for virus replication. […] For all CPE-based assays, the 50% effective concentration (EC50) was calculated by regression analysis using the means of the CPE ratings at each concentration of compound. Morphological changes due to compound cytotoxicity were graded on a scale of 0-5; grade 5 was defined as 100% cytotoxicity. The 50% cytotoxic dose (IC50) was calculated by regression analysis. A selective index (S.I.) was calculated for each compound (SI.=(IC50)/(EC50)).

Series [6] has as its system RSV strain A2. The series is described as follows: CPE inhibition assay, visual examination, RSV. The format is cell-based. The settings on record: for EC50: human respiratory syncytial virus, unit inferred. As to the method: as §1, §4
[7] abbreviates: in theory, CELADEN study, confirming literature.

By EC50 is commonly meant the concentration needed to bring the measured effect to its halfway point. A higher EC50 goes with weaker potency. A word on the CC50: it is the concentration giving 50% cytotoxicity. Low readings indicate greater toxicity to the cells, high ones lower toxicity to the cells. In the case of `CCCC(=O)O[C@H]1CN2CC[C@H](O)[C@@H]2[C@@H](O)[C@@H]1O` [Celgosivir HCL], the 50% effective concentration (EC50) is over 300 µM in series [1]; over 300 µM in series [5] (visual examination, HeLa Ohio cells, compounds tested at 0.3, 3, 30 and 300 microM, unit inferred); 37 µM in series [6] (MA104, visual examination, MA-104 cells, compounds tested at 0.3, 3, 30 and 300 microM); 34 to 37 µM in series [6] (against RSV, text summary over visual and neutral red assays). For the same compound, the “lung histopathology scores (RSV-induced inflammation)” value in series [2] (listed as Celgosivir) is on record as “reduced inflammation at all doses on three of four histopathology parameters”; in series [2] (listed as celgosivir), “reduced for at least one domain for all doses”. Also, in series [2] (dosing begun one day prior to vs one day after infection (FIG. 1)), the “impact of timing of administration on degree of protection against inflammation” value is given as “minimal impact”. Also, the half-maximal cytotoxic concentration (CC50) at 6 days in series [3] is over 300 µM. For the same compound, the adverse event profile result in series [4] (CELADEN study regimen) is recorded as “higher incidence of GI effects, but not increased severity”. For the same compound, the “maximum daily dose as a total dose” value in series [4] (setting [7]) is at most 600 mg. Further, the “maximum dose as a single dose” value in series [4] (setting [7]) is listed as at most 400 mg. The “efficacy against human rhinovirus-14” value in series [5] (at the concentrations tested (0.3-300 microM)) is reported as “Neither celgosivir nor castanospermine were determined to be efficacious”. The “efficacy against RSV infection” value in series [6] (in vitro) was “efficacious”.
